SMILES strings stand for the structures. Active and inactive are the calls of the source. No rule for the calls is given here.

This series relates to GENE-TOX genotoxicity assays, various organisms and cells. In words: GENE-TOX mutagenicity studies. The following applies: for call: Assay Type: In vivo carcinogenicity studies, Assay Code: CCG+.
[1] abbreviates: Species/Cell Type: Nonhuman, Assay Type: Sister-chromatid exchange (SCE) in vitro, Assay Code: SC2+D, Dose Response: With dose response, Evaluation Type: Evaluation B (Post-1980).
Where [2] appears, read: Species/Cell Type: Nonhuman, Evaluation Type: Evaluation A (Pre-1980).
The mark [3] stands for this setting: Species/Cell Type: Salmonella typhimurium (one or more of the five standard strains: TA98, TA100, TA1535, TA1537, and TA1538), Assay Type: Histidine reverse gene mutation, Ames assay, Assay Code: SAL+*, Activation: With metabolic activation, Evaluation Type: Evaluation A (Pre-1980).
The mark [4] stands for this setting: Species/Cell Type: Syrian hamster embryo (SA7/SHE) cells, Assay Type: Cell transformation, viral enhanced, Assay Code: CT7+, Evaluation Type: Evaluation A (Pre-1980).
Where [5] appears, read: Species/Cell Type: Schizosaccharomyces pombe, Assay Type: Reverse gene mutation, Assay Code: YEZ+, Evaluation Type: Evaluation A (Pre-1980).
The mark [6] stands for this setting: Species/Cell Type: Nonhuman, Assay Type: Sister-chromatid exchange (SCE) in vivo, Assay Code: SC3+, Evaluation Type: Evaluation B (Post-1980).
[7] abbreviates: Species/Cell Type: Mammalian polychromatic erythrocytes, Assay Type: Micronucleus test, chromosome aberrations, Assay Code: MNT+, Evaluation Type: Evaluation B (Post-1980).
Setting [8] is: Species/Cell Type: Vicia faba, Assay Type: Chromosome aberrations, Assay Code: VIC+, Evaluation Type: Evaluation A (Pre-1980).

Consider `Cn1cnc2c1c(=O)[nH]c(=O)n2C`, for which the mutagenic call runs as follows: (Species/Cell Type: Allium cepa, Assay Type: Chromosome aberrations, Assay Code: ALC-, Evaluation Type: Evaluation A (Pre-1980)) “inactive; negative”; (Species/Cell Type: Human lymphocytes, Assay Type: Sister-chromatid exchange (SCE) in vitro, Assay Code: SCL+, Evaluation Type: Evaluation B (Post-1980)) “active; positive”; (Species/Cell Type: Human, Assay Type: Sister-chromatid exchange (SCE) in vitro, Assay Code: SC1+, Evaluation Type: Evaluation B (Post-1980)) “active; positive”; (Species/Cell Type: Mammalian polychromatic erythrocytes, Assay Type: Micronucleus test, chromosome aberrations, Assay Code: MNT+U, Dose Response: Unconfirmed positive response, Evaluation Type: Evaluation B (Post-1980)) “active; positive”; under setting [1], “active; positive”; (Species/Cell Type: Nonhuman, Sex: Female, Assay Type: Sister-chromatid exchange (SCE) in vivo, Assay Code: SC3+DF, Dose Response: With dose response, Evaluation Type: Evaluation B (Post-1980)) “active; positive”. For the same compound, under “Species/Cell Type: Nonhuman, Sex: Male, Assay Type: Sister-chromatid exchange (SCE) in vivo, Assay Code: SC3+DM, Dose Response: With dose response, Evaluation Type: Evaluation B (Post-1980)”, the mutagenic call was “active; positive”.
Regarding `CN(C)N`, the mutagenic call is “inactive; negative” (Species/Cell Type: Human diploid fibroblasts, Assay Type: Unscheduled DNA synthesis (UDS) in vitro, DNA effects, Assay Code: UDH-*, Activation: With metabolic activation, Evaluation Type: Evaluation A (Pre-1980)); “no conclusion” (Species/Cell Type: Mammalian polychromatic erythrocytes, Assay Type: Micronucleus test, chromosome aberrations, Assay Code: MNTT, Evaluation Type: Evaluation A (Pre-1980)); “inactive; negative” (Species/Cell Type: Mouse lymphoma (L5178Y) cells, Assay Type: Forward gene mutation at the thymidine kinase (TK) locus, chromosome aberrations, Assay Code: L51-*, Activation: With metabolic activation, Evaluation Type: Evaluation A (Pre-1980)); “inactive; negative” (Species/Cell Type: Mouse, Sex: Male, Assay Type: Sperm morphology, Assay Code: SPI-, Evaluation Type: Evaluation A (Pre-1980)); “inactive; negative” (Species/Cell Type: Rodents, Sex: Male, Assay Type: Dominant lethal test, Assay Code: DLT-, Evaluation Type: Evaluation A (Pre-1980)); “inactive; negative” (Species/Cell Type: Saccharomyces cerevisiae, Assay Type: Mitotic recombination or gene conversion, Assay Code: YEC-, Evaluation Type: Evaluation A (Pre-1980)). For the same compound, the mutagenic call is, setting by setting: under setting [3], “active; positive”; under setting [4], “active; positive”. For the same compound, the call under setting [2] is “active; positive”.
Consider `CN=C(NC#N)NCCSCc1nc[nH]c1C`, for which the mutagenic call is given as “no conclusion” (Species/Cell Type: Human lymphocytes, Assay Type: Sister-chromatid exchange (SCE) in vitro, Assay Code: SCLT, Evaluation Type: Evaluation B (Post-1980)); “no conclusion” (Species/Cell Type: Human, Assay Type: Sister-chromatid exchange (SCE) in vitro, Assay Code: SC1T, Evaluation Type: Evaluation B (Post-1980)); “no conclusion” (Species/Cell Type: Human, Sex: Male, Assay Type: Sperm morphology, Assay Code: SPHT, Evaluation Type: Evaluation A (Pre-1980)).
Consider `Nc1ccc2ccc3cccc4ccc1c2c34`, for which, under setting [3], the mutagenic call is “active; positive”.
The same measure, in the same setting: the same measure for `Cc1ccc2ccc3c4ccccc4ccc3c2c1`: “active; positive”.
Regarding `ClN1CC1`, the mutagenic call under setting [5] was “active; positive”.
Regarding `Clc1ccc(C(c2ccccc2Cl)C(Cl)Cl)cc1` (stereo unspecified), under “Species/Cell Type: Nonhuman, Assay Type: Chromosome aberrations in vitro, Assay Code: CY&+, Evaluation Type: Evaluation A (Pre-1980)”, the mutagenic call is “active; positive”.
For the compound `CCCN(CCC)N=O`, the mutagenic call runs as follows: (Species/Cell Type: Chinese hamster lung (V79) cells, Assay Type: Forward gene mutation at the HPRT or ouabain locus, Assay Code: V79+, Evaluation Type: Evaluation A (Pre-1980)) “active; positive”; (Species/Cell Type: Human diploid fibroblasts, Assay Type: Unscheduled DNA synthesis (UDS) in vitro, DNA effects, Assay Code: UDHT, Evaluation Type: Evaluation A (Pre-1980)) “no conclusion”; under setting [6], “active; positive”; under setting [3], “active; positive”; under setting [4], “active; positive”. Besides, the call under setting [2] was “active; positive”.
As for `O=C(CCl)NCO`, the mutagenic call under setting [7] was “active; positive”.
Take `Cc1c2ccccc2c(C)c2c1ccc1ccc(F)cc12`: the mutagenic call (Species/Cell Type: Chinese hamster lung (V79) cells, Assay Type: Forward gene mutation at the HPRT or ouabain locus, Assay Code: V79-*, Activation: With metabolic activation, Evaluation Type: Evaluation A (Pre-1980)) was “inactive; negative”.
Take `CC1CCOS1(=O)=O` (stereo unspecified): under setting [5], the mutagenic call was “active; positive”.
With `Cc1ccc(N=Nc2c(O)ccc3ccccc23)c(C)c1`, the mutagenic call (Species/Cell Type: Bacillus subtilis (H17 vs M45T), Assay Type: Rec-assay, spot test, DNA effects (bacterial DNA repair), Assay Code: REXT, Evaluation Type: Evaluation A (Pre-1980)) is given as “no conclusion” and the mutagenic call under setting [3] was “active; positive”.
For the compound `CCS(=O)CCSP(=O)(OC)OC` (stereo unspecified), the mutagenic call (Species/Cell Type: Drosophila melanogaster, Assay Type: Sex-linked recessive lethal gene mutation, Assay Code: SRLT, Evaluation Type: Evaluation A (Pre-1980)) is given as “no conclusion”; the mutagenic call (Species/Cell Type: Human lymphocytes, Assay Type: Sister-chromatid exchange (SCE) in vitro, Assay Code: SCL+D, Dose Response: With dose response, Evaluation Type: Evaluation B (Post-1980)) is “active; positive”; the mutagenic call (Species/Cell Type: Human, Assay Type: Sister-chromatid exchange (SCE) in vitro, Assay Code: SC1+D, Dose Response: With dose response, Evaluation Type: Evaluation B (Post-1980)) was “active; positive”; the mutagenic call under setting [7] is “active; positive”; the mutagenic call under setting [1] is “active; positive”; the mutagenic call (Species/Cell Type: Saccharomyces cerevisiae, Assay Type: Mitotic recombination or gene conversion, Assay Code: YEC+, Evaluation Type: Evaluation A (Pre-1980)) was “active; positive”.
For `COC1=C(N)C(=O)c2nc(-c3nc(C(=O)O)c(C)c(-c4ccc(OC)c(OC)c4O)c3N)ccc2C1=O`, the mutagenic call is “inactive; negative” (Species/Cell Type: Fischer rat embryo (RLV/1706) cells, Assay Type: Cell transformation, viral enhanced, Assay Code: CTR-, Evaluation Type: Evaluation A (Pre-1980)); “active; positive” (Species/Cell Type: Human cell culture, Assay Type: Chromosome aberrations in vitro, Assay Code: CYZ+, Evaluation Type: Evaluation A (Pre-1980)); “active; positive” (Species/Cell Type: Human diploid fibroblasts, Assay Type: Unscheduled DNA synthesis (UDS) in vitro, DNA effects, Assay Code: UDH+, Evaluation Type: Evaluation A (Pre-1980)); “active; positive” (Species/Cell Type: Mammalian oocytes or early embryo, Assay Type: Chromosome aberrations in vivo, Assay Code: CYO+, Evaluation Type: Evaluation A (Pre-1980)); “active; positive” (Species/Cell Type: Nonhuman, Assay Type: Sister-chromatid exchange (SCE) in vivo, Assay Code: SC3+, Evaluation Type: Evaluation A (Pre-1980)); “active; positive” under setting [8].
In the case of `O=NN1CCCCC1`, the mutagenic call is, setting by setting: (Species/Cell Type: Drosophila melanogaster, Assay Type: Aneuploidy, partial sex chromosome loss, chromosome aberrations, Assay Code: DAPT, Evaluation Type: Evaluation A (Pre-1980)) “no conclusion”; (Species/Cell Type: Drosophila melanogaster, Assay Type: Aneuploidy, whole sex chromosome loss, chromosome aberrations, Assay Code: DACT, Evaluation Type: Evaluation A (Pre-1980)) “no conclusion”; (Species/Cell Type: Drosophila melanogaster, Assay Type: Sex-linked recessive lethal gene mutation, Assay Code: SRL+, Evaluation Type: Evaluation A (Pre-1980)) “active; positive”; (Species/Cell Type: Escherichia coli polA (W3119 vs P3478), Assay Type: Rec-assay, DNA effects (bacterial DNA repair), Assay Code: RE1+, Evaluation Type: Evaluation A (Pre-1980)) “active; positive”; under setting [6], “active; positive”; (Species/Cell Type: Saccharomyces cerevisiae, Assay Type: Forward gene mutation, Assay Code: YEF+*, Activation: With metabolic activation, Evaluation Type: Evaluation A (Pre-1980)) “active; positive”. For the same compound, the mutagenic call (Species/Cell Type: Saccharomyces cerevisiae, Assay Type: Reverse gene mutation, Assay Code: YER+*, Activation: With metabolic activation, Evaluation Type: Evaluation A (Pre-1980)) is “active; positive”; the mutagenic call under setting [3] is “active; positive”; the mutagenic call (Species/Cell Type: Syrian hamster embryo (SHE) cells, Assay Type: Cell transformation, clonal assay, Assay Code: CTC+, Evaluation Type: Evaluation A (Pre-1980)) was “active; positive”. Besides, under setting [2], the call is “active; positive”.
As for `Cl[Se][Se]Cl`, the mutagenic call (Species/Cell Type: Syrian hamster embryo (SA7/SHE) cells, Assay Type: Cell transformation, viral enhanced, Assay Code: CT7T, Evaluation Type: Evaluation A (Pre-1980)) is recorded as “no conclusion”.
With `CO[C@@H]1[C@H](O)C[C@@H](O[C@@H]2C[C@H](Oc3cc4cc5c(c(O)c4c(O)c3C)C(=O)[C@@H](O[C@H]3C[C@@H](O[C@H]4C[C@@H](O[C@H]6C[C@](C)(O)[C@@H](OC(C)=O)[C@H](C)O6)[C@H](O)[C@@H](C)O4)[C@H](O)[C@@H](C)O3)[C@H]([C@H](OC)C(=O)[C@@H](O)[C@@H](C)O)C5)O[C@H](C)[C@@H]2OC(C)=O)O[C@@H]1C`, the mutagenic call (Species/Cell Type: Chinese hamster ovary (CHO) cells, Assay Type: Forward gene mutation at the HPRT locus, Assay Code: CHO+, Evaluation Type: Evaluation B (Post-1980)) was “active; positive”.
In the case of `COC(=O)COc1ccc(Br)cc1CSC(=N)N`, the mutagenic call (Species/Cell Type: Saccharomyces cerevisiae, Assay Type: Reverse gene mutation, Assay Code: YERT, Evaluation Type: Evaluation A (Pre-1980)) was “no conclusion”.
Regarding `CCOC(=O)CSc1ccc2c3c(cccc13)C(=O)c1ccccc1-2`, the mutagenic call under setting [3] was “active; positive”.
As to `O=c1[nH]cc(I)c(=O)[nH]1`, the mutagenic call under setting [8] is “active; positive”.

Source of the values: PubChem BioAssay AID1259408 (Genetic Toxicology Data Bank (GENE-TOX), 2018).
